{"source": "patent EP2637695B1", "about": "“OLMESARTAN FORMULATIONS” (Abdi Ibrahim Ilac Sanayi ve Ticaret Anonim Sirketi, priority 2010, dated 2012)", "origin": "cited, not measured here", "key": {"[1]": {"conditions": "in humans"}}, "note": "Where two headings read alike, the source gives them in different places.", "data": [{"smiles": "CCCc1nc(C(C)(C)O)c(C(=O)OCc2oc(=O)oc2C)n1Cc1ccc(-c2ccccc2-c2nnn[nH]2)cc1", "note": "[Olmesartan medoxomil, (5-methyl-2-oxo-1,3-dioxolen-4-yl)rnethyl 4-(1-hydroxy-1-methylethyl)-2-propyl-1-{4-[2-(tetrazol-5-yl)phenyl]phenyl}methylimidazole-5-carboxylate]", "values": [{"measurement": "solubility", "setting": "in 17 hydrochloric acid", "value": "insoluble"}, {"measurement": "solubility", "setting": "in strong acid", "value": "sparingly soluble"}, {"measurement": "solubility", "setting": "in strong base", "value": "soluble"}, {"measurement": "solubility", "setting": "in water and in the pH range of 3 to 9", "value": "practically insoluble"}, {"measurement": "bioavailability (BA)", "setting": "[1]", "value": "approximately 26%"}]}]}
